Converted amounts (≈) assume the structure as drawn. “And” between values parts separate entries of the source, which are not always exact repeats. Equal values may be shown once. Read-outs that look alike come from different tables or passages of the source.
Legend:
[1] = test system: SARS-CoV-2, isolate USA-WA1/2020; assay: microbe, parasite or virus in culture; format: cell-based; details: HeLa-ACE2 SARS-CoV-2 antiviral effect without P-gp inhibitor; for perc_max_measured: maximum measured response of dose series; for perc_min_measured: minimum measured response of dose series; for EC50: read-out: ec50; for EC90: read-out: ec90
[2] = test system: SARS-CoV-2; assay: Antiviral effect in iPSC-derived pneumocyte system; format: cell-based; details: iPSC pneumocytes SARS-CoV-2 antiviral effect; for perc_max_measured: maximum measured response of dose series; for perc_min_measured: minimum measured response of dose series
[3] = Hepatic microsomal stability, HLM; format: in vitro ADME, human; details: In vitro human liver microsomal stability; for perc_remaining_no_cofactor: no cofactor
[4] = Hepatic microsomal stability, MLM; format: in vitro ADME
[5] = test system: iPSC pneumocytes; assay: iPSC pneumocytes cytotoxicity; format: cell-based; details: for perc_max_measured: highest measured response of the dose series; for perc_min_measured: lowest measured response of the dose series
Excerpt: Supplement media-1.zip/Cytotoxicity.csv, table | column: cc10; cc50; perc_min_measured; perc_max_measured

[6] = test system: HeLa-ACE2 cells; details: for perc_max_measured: highest measured response of the dose series; for perc_min_measured: lowest measured response of the dose series
[7] = LogD; details: pH 7.4; In vitro LogD
[8] = in vitro; design: Cytotoxicity in iPSC-derived pneumocytes, CC50; details: human, ipsc-derived pneumocytes, read-out: 50.0
Excerpt: Finally, we consider the hypothesis that interferon response triggers ADP-ribosylation, thus profiling the compounds in enhanced and physiologically relevant interferon environments could reveal detectable antiviral effects. […] Furthermore, HeLa-ACE2 cells, and all cancerous cell lines, display defective innate immune response ([1]). As such, we also assess our compound in a primary-like iPSC-derived pneumocyte system (Figure 7C), showing likewise a lack of antiviral activity in this physiologically relevant innate immunity system.

[9] = in vitro; details: human, hela-ace2 cells, 50.0
[10] = In vitro kinetic solubility; details: In vitro kinetic solubility, ph 7.4
[11] = Permeability Papp (AB) MDR1/MDCKII; details: for papp_a_to_b_mean / papp_b_to_a_mean / efflux_ratio / perc_recovery_a_to_b_mean / perc_recovery_b_to_a_mean: In vitro MDR1-MDCKII permeability; for papp_a_to_b_mean: A to B; for papp_b_to_a_mean: B to A; for perc_recovery_a_to_b_mean / perc_recovery_a_to_b_inhibitor_mean: recovery A to B; for perc_recovery_b_to_a_mean / perc_recovery_b_to_a_inhibitor_mean: recovery B to A; for perc_recovery_a_to_b_inhibitor_mean / perc_recovery_b_to_a_inhibitor_mean: MDR1-MDCKII, with inhibitor Verapamil
[12] = In vitro mouse liver microsomal stability
[13] = In vitro mouse liver microsomal stability, no cofactor
[14] = protocol HeLa-ACE2 cytotoxicity
[15] = In vitro mouse liver microsomal stability; no cofactor
[16] = protocol iPSC pneumocytes cytotoxicity

CC(C)[C@@H](Nc1ncnc2[nH]c(-c3cnn(C)c3C#N)cc12)c1ccc2c(c1)S(=O)(=O)CCC2 (single isomer, unassigned) [ASAP-0011147]
perc_max_measured [1]: 114.163% | perc_min_measured [1]: 4.545% | EC50 [1]: 3.51 µM | EC90 [1]: 13.2 µM | EC50 [2]: 0.411 µM | EC90 [2]: 13 µM | perc_max_measured [2]: 75.192% | perc_min_measured [2]: 0.111% | clint [3]: 516.0 µL/min/mg | perc_remaining [3]: 0.0% | t_half [3]: 3.2 min | perc_remaining_no_cofactor [3]: 101.0% | clint [4, 12]: 709.0 µL/min/mg | perc_remaining [4, 12]: 0.0% | t_half [4, 12]: 2.4 min | perc_remaining_no_cofactor [4, 13]: 106.0% | CC50 [5]: > 50 µM | cc10 [5]: > 50.0 µM | perc_max_measured [5]: 111.987% | perc_min_measured [5]: 95.623% | CC50 [6, 14]: > 20 µM | cc10 [6, 14]: > 20.0 µM | perc_max_measured [6, 14]: 92.283% | perc_min_measured [6, 14]: 75.829% | logd [7]: 3.7 | CC50 ([8]; ASAP-0008327-001=ASAP-0011147-001): > 50 µM | CC50 at 24 h [9]: > 20 µM | solubility_mean [10]: 26 µM (≈ 12.4 µg/mL) | papp_a_to_b_mean ([11]; mean): 1.82 ×10⁻⁶ cm/s | papp_a_to_b_mean ([11]; no inhibitor): 0.087 ×10⁻⁶ cm/s | papp_b_to_a_mean ([11]; no inhibitor): 7.5 ×10⁻⁶ cm/s | efflux_ratio ([11]; no inhibitor): 85.7 | perc_recovery_a_to_b_mean ([11]; mean): 54.6% | perc_recovery_a_to_b_mean ([11]; no inhibitor): 82.5% | perc_recovery_b_to_a_mean ([11]; no inhibitor): 96.5% | perc_recovery_a_to_b_inhibitor_mean [11]: 63.2% | perc_recovery_b_to_a_inhibitor_mean [11]: 72.3%

CNC(=O)c1cc2c(N[C@@H](c3ccc4c(c3)OCCO4)C(C)C)ncnc2[nH]1 [ASAP-0008348]
perc_max_measured [1]: 114.293% | perc_min_measured [1]: 64.264% | EC50 [1]: > 50 µM | EC90 [1]: > 50 µM | EC50 [2]: > 50 µM | EC90 [2]: > 50 µM | perc_max_measured [2]: 153.61% | perc_min_measured [2]: 91.144% | clint [3]: 79.0 µL/min/mg | perc_remaining [3]: 23.0% | t_half [3]: 21.1 min | perc_remaining_no_cofactor [3]: 92.0% | clint [4, 12]: 55.0 µL/min/mg | perc_remaining [4, 12]: 43.0% | t_half [4, 12]: 30.5 min | perc_remaining_no_cofactor [4, 15]: 112.0% | CC50 [5, 16]: > 50 µM | cc10 [5, 16]: > 50.0 µM | perc_max_measured [5, 16]: 98.804% | perc_min_measured [5, 16]: 52.012% | CC50 [6, 14]: > 50 µM | cc10 [6, 14]: > 50.0 µM | perc_max_measured [6, 14]: 108.404% | perc_min_measured [6, 14]: 99.225% | logd [7]: 2.76 | CC50 ([8]; ASAP-0008327-001=ASAP-0008348-001): > 50 µM | CC50 at 24 h [9]: > 50 µM | solubility_mean [10]: 380 µM (≈ 145 µg/mL) | papp_a_to_b_mean ([11]; mean): 1.96 ×10⁻⁶ cm/s | perc_recovery_a_to_b_mean ([11]; mean): 86.8%

CC(C)[C@@H](Nc1ncnc2[nH]c(-c3cnn(CC(N)=O)c3)cc12)c1ccc2c(c1)OCCO2 [ASAP-0008288]
perc_max_measured [1]: 122.799% | perc_min_measured [1]: 73.654% | EC50 [1]: > 50 µM | EC90 [1]: > 50 µM | EC50 [2]: 37.1 µM | EC90 [2]: > 50 µM | perc_max_measured [2]: 96.462% | perc_min_measured [2]: 23.083% | clint [3]: 99.0 µL/min/mg | perc_remaining [3]: 20.0% | t_half [3]: 16.9 min | perc_remaining_no_cofactor [3]: 103.0% | clint [4, 12]: 41.0 µL/min/mg | perc_remaining [4, 12]: 54.0% | t_half [4, 12]: 41.1 min | perc_remaining_no_cofactor [4, 15]: 87.0% | CC50 [5, 16]: > 50 µM | cc10 [5, 16]: > 50.0 µM | perc_max_measured [5, 16]: 102.79% | perc_min_measured [5, 16]: 85.436% | CC50 [6, 14]: > 50 µM | cc10 [6, 14]: > 50.0 µM | perc_max_measured [6, 14]: 128.866% | perc_min_measured [6, 14]: 114.308% | logd [7]: 0.9 | CC50 ([8]; ASAP-0008327-001=ASAP-0008288-001): > 50 µM | CC50 at 24 h [9]: > 50 µM | solubility_mean [10]: 345 µM (≈ 154 µg/mL) | papp_a_to_b_mean ([11]; mean): 0.9 ×10⁻⁶ cm/s | perc_recovery_a_to_b_mean ([11]; mean): 89.0%

Cc1ncc(-c2cc3c(N[C@@H](c4ccc5c(c4)OCCO5)C(C)C)ncnc3[nH]2)cn1 [ASAP-0008490]
perc_max_measured [1]: 95.537% and 100.014% | EC50 [1]: 4.51 µM | EC90 [1]: > 20 µM | EC50 [2]: 15.7 µM | EC90 [2]: 36 µM | perc_max_measured [2]: 160.084% | perc_min_measured [2]: 9.251% | CC50 [5, 16]: > 50 µM | cc10 [5, 16]: > 50.0 µM | perc_max_measured [5, 16]: 94.665% | perc_min_measured [5, 16]: 63.131% | CC50 [6]: > 20 µM | cc10 [6]: > 20.0 µM | perc_max_measured [6, 14]: 110.055% and 97.495% | perc_min_measured [6, 14]: 79.698% and 83.505% | CC50 ([8]; ASAP-0008327-001=ASAP-0008490-001): > 50 µM | CC50 at 24 h [9]: > 20 µM

CC(C)(C)[C@@H](Nc1ncnc2[nH]c(-c3cnn(CC(N)=O)c3)cc12)c1ccc2c(n1)OCCO2 [ASAP-0011162]
perc_max_measured [1]: 115.43% | perc_min_measured [1]: 93.464% | EC50 [1]: > 20 µM | EC90 [1]: > 20 µM | EC50 [2]: 11.4 µM | EC90 [2]: > 50 µM | perc_max_measured [2]: 91.919% | perc_min_measured [2]: 11.328% | clint [3]: 42.0 µL/min/mg | perc_remaining [3]: 49.0% | t_half [3]: 39.8 min | perc_remaining_no_cofactor [3]: 107.0% | clint [4, 12]: 30.0 µL/min/mg | perc_remaining [4, 12]: 59.0% | t_half [4, 12]: 56.2 min | perc_remaining_no_cofactor [4, 13]: 109.0% | CC50 [5]: > 50 µM | cc10 [5]: > 50.0 µM | perc_max_measured [5]: 104.975% | perc_min_measured [5]: 91.59% | CC50 [6, 14]: > 20 µM | cc10 [6, 14]: > 20.0 µM | perc_max_measured [6, 14]: 99.27% | perc_min_measured [6, 14]: 66.005% | logd [7]: 2.9 | CC50 ([8]; ASAP-0008327-001=ASAP-0011162-001): > 50 µM | CC50 at 24 h [9]: > 20 µM | solubility_mean [10]: 390 µM (≈ 180 µg/mL) | papp_a_to_b_mean ([11]; mean): 1.53 ×10⁻⁶ cm/s | perc_recovery_a_to_b_mean ([11]; mean): 75.9%

CC(C)[C@@H](Nc1ncnc2[nH]c(C(=O)N[C@H]3CCN(C)C3)cc12)c1ccc2c(c1)S(=O)(=O)CCC2 (single isomer, unassigned) [ASAP-0012336]
perc_max_measured [1]: 102.123% | perc_min_measured [1]: 84.181% | EC50 [1]: > 20 µM | EC90 [1]: > 20 µM | EC50 [2]: > 50 µM | EC90 [2]: > 50 µM | perc_max_measured [2]: 114.501% | perc_min_measured [2]: 59.767% | clint [3]: 26.0 µL/min/mg | perc_remaining [3]: 66.0% | t_half [3]: 64.0 min | perc_remaining_no_cofactor [3]: 107.0% | clint [4, 12]: 4.0 µL/min/mg | perc_remaining [4, 12]: 92.0% | t_half [4, 12]: 433.8 min | perc_remaining_no_cofactor [4, 13]: 92.0% | CC50 [5]: > 50 µM | cc10 [5]: > 50.0 µM | perc_max_measured [5]: 106.87% | perc_min_measured [5]: 91.721% | CC50 [6, 14]: > 20 µM | cc10 [6, 14]: > 20.0 µM | perc_max_measured [6, 14]: 90.418% | perc_min_measured [6, 14]: 77.593% | logd [7]: 1.5 | CC50 ([8]; ASAP-0008327-001=ASAP-0012336-001): > 50 µM | solubility_mean [10]: 392 µM (≈ 195 µg/mL) | papp_b_to_a_mean ([11]; no inhibitor): 0.038 ×10⁻⁶ cm/s | efflux_ratio ([11]; no inhibitor): 0.5 | perc_recovery_a_to_b_mean ([11]; no inhibitor): 53.5% and 74.5% | perc_recovery_b_to_a_mean ([11]; no inhibitor): 66.7% | perc_recovery_a_to_b_inhibitor_mean [11]: 95.9% | perc_recovery_b_to_a_inhibitor_mean [11]: 77.9%

Reference: article doi:10.1101/2024.08.19.608619, “Discovery of potent SARS-CoV-2 nsp3 macrodomain inhibitors uncovers lack of translation to cellular antiviral response” (bioRxiv, 2024)
